{
  "source": "paper PMC3538687",
  "about": "“Detection of Cyclic Diguanylate G-Octaplex Assembly and Interaction with Proteins” (PLoS ONE, 2013)",
  "key": {"[1]": {"biological_target": "T1, HIV-1 reverse transcriptase (HIV RT) (HIV-1 M:B_HXB2R, UniProt P04585)", "T1 construct": "gene gag-pol; purchased from Worthington; mature RT cut from Gag-Pol polyprotein; with p51 RT", "experiment": "DRaCALA direct binding, protein titration", "conditions": "labelled compound (32P), 500 nM; K+ buffer pH 7.9, room temperature; concentration given as cdiGMP monomers; octaplex only, cdiGMP M/D does not bind; primer-template site"}, "[2]": {"biological_target": "T1, HIV-1 reverse transcriptase (HIV RT)", "experiment": "primer extension, […] min", "type": "biochemical", "conditions": "80 mM KCl, 6 mM MgCl2, 100 µM dNTPs, pH 8; G8 prepared in K+; concentration given as cdiGMP monomers; octaplex only, M/D shows no inhibition"}},
  "data": [
    {"substance": "cdiGMP G8", "values": [
      {"measurement": "Kd", "setting": "[1]", "result": "0.7 ± 0.1", "unit": "µM"},
      {"measurement": "IC50", "setting": "[2]", "result": "28 ± 7", "unit": "µM"}
    ]}
  ]
}
